Measured values from US10125100B2, “Kinase inhibitors” (Respivert Limited, priority 2014, dated 2018).
Where a name gives a salt, the structure may show the parent alone. Read-outs that look alike come from different tables or passages of the source.

Assays:
Jurkat cells = assay: (r) Cell cytotoxicity assay; format: cell-based, human; settings: 24 hours
Procedure, shortened: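 Viability read by flow cytometry as the fraction of propidium iodide-negative cells (7.5 μg/mL PI, 15 min), relative to 1.0% DMSO control. Beforehand, 1×10^5 Jurkat cells in RPMI/10% FBS were treated 24 h at 37° C., 5% CO2 with test compound at final 20, 5 or 1 μg/mL.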

p38 MAPKα (MAPK14) = p38 MAPKα (MAPK14) (Homo sapiens (Human), UniProt Q16539); assay: p38 MAPKα enzyme inhibition (Method 2), Z-LYTE FRET; format: biochemical
Chain of p38 MAPKα (MAPK14) (Q16539 whole entry): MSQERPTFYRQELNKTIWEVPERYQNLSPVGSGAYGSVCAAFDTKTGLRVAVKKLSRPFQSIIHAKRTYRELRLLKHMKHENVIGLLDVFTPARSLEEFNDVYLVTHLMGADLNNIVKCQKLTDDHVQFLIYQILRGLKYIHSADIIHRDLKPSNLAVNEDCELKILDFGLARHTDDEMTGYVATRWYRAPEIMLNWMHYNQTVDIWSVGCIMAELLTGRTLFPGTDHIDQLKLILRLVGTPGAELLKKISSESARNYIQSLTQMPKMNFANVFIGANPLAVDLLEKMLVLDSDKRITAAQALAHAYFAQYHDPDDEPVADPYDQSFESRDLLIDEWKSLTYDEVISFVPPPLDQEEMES
Procedure, shortened: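 Enzyme (200 ng/mL solution) was preincubated 2 h at RT with compound solutions of 1, 0.1, 0.01 or 0.001 μg/mL, and inhibition was read indirectly via MAPKAP-K2 activation/phosphorylation. After a 1 h RT reaction and 1 h protease development, phosphorylation was derived from the coumarin/fluorescein emission ratio.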

c-Src = c-Src (Homo sapiens (Human), UniProt P12931); assay: c-Src enzyme inhibition, Z-LYTE FRET; format: biochemical
Chain of c-Src (P12931 whole entry, looked up): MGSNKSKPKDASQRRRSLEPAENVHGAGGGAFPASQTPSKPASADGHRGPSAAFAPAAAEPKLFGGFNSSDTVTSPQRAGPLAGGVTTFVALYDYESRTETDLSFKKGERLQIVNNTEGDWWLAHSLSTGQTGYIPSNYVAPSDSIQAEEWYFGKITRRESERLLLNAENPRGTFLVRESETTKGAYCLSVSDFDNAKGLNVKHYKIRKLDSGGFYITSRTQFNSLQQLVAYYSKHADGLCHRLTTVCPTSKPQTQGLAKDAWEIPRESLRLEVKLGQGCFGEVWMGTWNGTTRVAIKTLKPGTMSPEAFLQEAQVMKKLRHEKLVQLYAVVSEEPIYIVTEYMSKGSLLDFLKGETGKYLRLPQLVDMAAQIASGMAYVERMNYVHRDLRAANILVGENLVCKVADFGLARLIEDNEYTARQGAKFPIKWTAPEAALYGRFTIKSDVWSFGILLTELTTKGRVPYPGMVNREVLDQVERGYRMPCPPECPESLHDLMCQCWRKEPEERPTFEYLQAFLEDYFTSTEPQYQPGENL
Procedure, shortened: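 Z-LYTE FRET peptide phosphorylation read as donor coumarin over acceptor fluorescein ratio after 1 hr protease development. Compounds (1–0.001 μg/mL) preincubated 2 hr at RT with enzyme; ATP solutions 60 μM for Syk, 800 μM for c-Src; kinase reaction 1 hr.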

mitosis in PBMCs = assay: (g) Cell mitosis assay; format: cell-based; settings: Homo sapiens, PBMC, 5 μg/mL
Procedure: Peripheral blood mononucleocytes (PBMCs) from healthy subjects are separated from whole blood (Quintiles, London, UK) using a density gradient (Histopaque®-1077, Sigma-Aldrich, Poole, UK). The PBMCs (3 million cells per sample) are subsequently treated with 2% PHA (phytohaemagglutinin, Sigma-Aldrich, Poole, UK) for 48 hr, followed by a 20 hr exposure to varying concentrations of test compounds. At 2 hr before collection, PBMCs are treated with demecolcine (0.1 μg/mL; Invitrogen, Paisley, UK) to arrest cells in metaphase. To observe mitotic cells, PBMCs are permeabilized and fixed by adding Intraprep (50 μL; Beckman Coulter, France), and stained with anti-phospho-histone 3 ([…]; #9701; Cell Signalling, Danvers, Mass.) and propidium iodide (1 mg/mL; Sigma-Aldrich, Poole, UK) as previously described (Muehlbauer P. A. and Schuler M. J., Mutation Research, 2003, 537:117-130). Fluorescence is observed using an ATTUNE flow cytometer (Invitrogen, Paisley, UK), gating for lymphocytes.

Syk = Syk (Homo sapiens (Human), UniProt P43405); assay: Syk enzyme inhibition, Z-LYTE FRET; format: biochemical
Procedure, shortened: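 Syk or c-Src enzyme (3000 or 2000 ng/mL solutions) was preincubated 2 h at RT with compound solutions at 1, 0.1, 0.01 or 0.001 µg/mL. Z-LYTE FRET peptide (8 µM solution) and ATP (800 µM solution for c-Src, 60 µM for Syk) were then added for 1 h, followed by protease development for 1 h. Phosphorylation was read as the coumarin/fluorescein emission ratio.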

[1] = Pharmacokinetics and total colon distribution after oral administration; format: in vivo; settings: male, C57BL/6, mouse, mice, oral 5 mg/kg, dosed compound measured
Procedure: Studies were conducted by Sai Life Sciences (Hinjewadi, Pune, India) to investigate the systemic pharmacokinetics and total colon tissue distribution of compounds of the invention. In particular, pharmacokinetic studies were carried out in male C57BL/6 mice following a single oral administration of the compound.

[2] = Stability of pharmaceutical formulations; format: physicochemical; settings: for Original Purity: 1 mg/mL solution, before storage; for Purity at week n = 1: 1 week; for Purity at week n = 2: 2 weeks; for Purity at week n = 4: 4 weeks
Procedure: The samples were sonicated to achieve clear solutions having the following properties: Osmolality (mOsm/kg): 310 (Na), 314 (HCl); pH: 7.00 (Na), 7.05 (HCl). 0.5 mL of the stock solutions were diluted to 1 mL with 20% DMSO in water & injected for purity analysis by HPLC. The remaining stock solutions were then split into aliquots of 0.5 mL in HPLC vials, and stored at various conditions in duplicate. Samples were stored at 5 and 25° C., before being analysed by HPLC at 1, 2 and 4 weeks. Separate samples were stored at 40° C. and analysed at 4 weeks.

[3] = blood, read-out: Mean blood concentration
[4] = total colon, read-out: total colon level

SMILES: COc1cc(Nc2cc(Oc3ccc(NC(=O)Nc4cc(C(C)(C)C)cc(NS(C)(=O)=O)c4OC)c4ccccc34)ccn2)ccc1C(=O)NCCN1CCCCC1 [17(p), 4-[[4-[[4-[[5-tert-butyl-3-(methanesulfonamido)-2-methoxy-phenyl]carbamoylamino]-1-naphthyl]oxy]-2-pyridyl]amino]-2-methoxy-N-[2-(1-piperidyl)ethyl]benzamide]
- % Viability at 1 μg/mL (Jurkat cells): 102.1%
- % Viability at 5 μg/mL (Jurkat cells): 49.9%
- % Viability at 20 μg/mL (Jurkat cells): 1.5%
- IC50 (p38 MAPKα (MAPK14)): 20 nM
- IC50 (c-Src): 21 nM
- inhibition at 5 µg/mL (mitosis in PBMCs): 92%
- IC50 (Syk): 172 nM

SMILES: COc1cc(Nc2cc(Oc3ccc(NC(=O)Nc4cc(C(C)(C)C)cc(NS(C)(=O)=O)c4OC)c4ccccc34)ccn2)cc(OC)c1C(=O)NCCN1CCOCC1 [17(ae), 4-[[4-[[4-[[5-tert-butyl-3-(methanesulfonamido)-2-methoxy-phenyl]carbamoylamino]-1-naphthyl]oxy]-2-pyridyl]amino]-2,6-dimethoxy-N-(2-morpholinoethyl)benzamide]
- % Viability at 1 μg/mL (Jurkat cells): 93.1%
- % Viability at 5 μg/mL (Jurkat cells): 98.5%
- % Viability at 20 μg/mL (Jurkat cells): 92.9%
- IC50 (p38 MAPKα (MAPK14)): 10 nM
- IC50 (c-Src): 31 nM
- inhibition at 5 µg/mL (mitosis in PBMCs): 30.6%
- IC50 (Syk): 112 nM

SMILES: COc1cc(Nc2cc(Oc3ccc(NC(=O)Nc4cc(C(C)(C)C)cc(NS(C)(=O)=O)c4OC)c4ccccc34)ccn2)ccc1C(=O)NCCOCCOCCOP(=O)(O)O [Example 19, 2-(2-(2-(4-((4-((4-(3-(5-(tert-Butyl)-2-methoxy-3-(methylsulfonamido)phenyl)ureido)-naphthalen-1-yl)oxy)pyridin-2-yl)amino)-2-methoxybenzamido)ethoxy)ethoxy)ethyl dihydrogen phosphate]
- % Viability at 1 μg/mL (Jurkat cells): 105.0%
- % Viability at 5 μg/mL (Jurkat cells): 106.0%
- % Viability at 20 μg/mL (Jurkat cells): 100.9%
- concentration at 0.5 h [1, 3]: 0 ng/mL
- concentration at 1 h [1, 3]: 0 ng/mL
- concentration at 2 h [1, 3]: 0 ng/mL
- concentration at 4 h [1, 3]: 0 ng/mL
- concentration at 6 h [1, 3]: 0 ng/mL
- concentration at 8 h [1, 3]: 0 ng/mL
- concentration at 12 h [1, 3]: 0 ng/mL
- concentration at 24 h [1, 3]: 0 ng/mL
- concentration at 0.5 h [1, 4]: 0 ng/g
- concentration at 1 h [1, 4]: 0 ng/g
- concentration at 2 h [1, 4]: 0 ng/g
- concentration at 4 h [1, 4]: 0 ng/g
- concentration at 6 h [1, 4]: 0 ng/g
- concentration at 8 h [1, 4]: 0 ng/g
- concentration at 12 h [1, 4]: 0 ng/g
- concentration at 24 h [1, 4]: 0 ng/g

SMILES: COc1cc(Nc2cc(Oc3ccc(NC(=O)Nc4cc(C(C)(C)C)cc(NS(C)(=O)=O)c4OC)c4ccccc34)ccn2)ccc1C(=O)O.Cl [Example 1, hydrochloride salt]
- Original Purity ([2]; Sample 1): 98.1%
- Purity at week n = 1 ([2]; Sample 1, 5° C.): 98.2%
- Purity at week n = 2 ([2]; Sample 1, 5° C.): 98.1%
- Purity at week n = 4 ([2]; Sample 1, 5° C.): 97.9%
- Purity at week n = 1 ([2]; Sample 1, 25° C.): 98.0%
- Purity at week n = 2 ([2]; Sample 1, 25° C.): 97.7%
- Purity at week n = 4 ([2]; Sample 1, 25° C.): 97.2%
- Purity at week n = 4 ([2]; Sample 1, 40° C.): 79.2%
- Original Purity ([2]; Sample 2): 98.1%
- Purity at week n = 1 ([2]; Sample 2, 5° C.): 98.2%
- Purity at week n = 2 ([2]; Sample 2, 5° C.): 98.0%
- Purity at week n = 4 ([2]; Sample 2, 5° C.): 98.0%
- Purity at week n = 1 ([2]; Sample 2, 25° C.): 98.0%
- Purity at week n = 2 ([2]; Sample 2, 25° C.): 97.6%
- Purity at week n = 4 ([2]; Sample 2, 25° C.): 97.4%
- Purity at week n = 4 ([2]; Sample 2, 40° C.): 80.4%

SMILES: COc1cc(Nc2cc(Oc3ccc(NC(=O)Nc4cc(C(C)(C)C)cc(NS(C)(=O)=O)c4OC)c4ccccc34)ccn2)ccc1C(=O)O [Example 1, sodium salt]
- Purity at week n = 4 ([2]; Sample 1, 40° C.): 76.0%

SMILES: COc1cc(Nc2cc(Oc3ccc(NC(=O)Nc4cc(C(C)(C)C)cc(NS(C)(=O)=O)c4OC)c4ccccc34)ccn2)ccc1C(=O)NCCN1CCSCC1 [17(l), 4-[[4-[[4-[[5-tert-butyl-3-(methanesulfonamido)-2-methoxy-phenyl]carbamoylamino]-1-naphthyl]oxy]-2-pyridyl]amino]-2-methoxy-N-(2-thiomorpholinoethyl)benzamide]
- % Viability at 1 μg/mL (Jurkat cells): 102.8%
- % Viability at 5 μg/mL (Jurkat cells): 102.7%
- % Viability at 20 μg/mL (Jurkat cells): 102.9%
- IC50 (p38 MAPKα (MAPK14)): 223 nM
- IC50 (c-Src): 116 nM
- inhibition at 5 µg/mL (mitosis in PBMCs): 24.9%
- IC50 (Syk): 389 nM

SMILES: COc1cc(Nc2cc(Oc3ccc(NC(=O)Nc4cc(C(C)(C)C)cc(NS(C)(=O)=O)c4OC)c4ccccc34)ccn2)ccc1C(=O)NCCC1CCN(C)CC1 [Example 14, 4-[[4-[[4-[[5-tert-Butyl-3-(methanesulfonamido)-2-methoxy-phenyl]carbamoylamino]-1-naphthyl]oxy]-2-pyridyl]amino]-2-methoxy-N-[2-(1-methyl-4-piperidyl)ethyl]benzamide]
- % Viability at 1 μg/mL (Jurkat cells): 101.9%
- % Viability at 5 μg/mL (Jurkat cells): 98.8%
- % Viability at 20 μg/mL (Jurkat cells): 0.7%
- IC50 (p38 MAPKα (MAPK14)): 10 nM
- IC50 (c-Src): 19 nM
- inhibition at 5 µg/mL (mitosis in PBMCs): 60.1%
- IC50 (Syk): 92 nM

SMILES: COc1cc(Nc2cc(Oc3ccc(NC(=O)Nc4cc(C(C)(C)C)cc(NS(C)(=O)=O)c4OC)c4ccccc34)ccn2)ccc1C(=O)NCCCN1CCOCC1 [17(b), 4-[[4-[[4-[[5-tert-butyl-3-(methanesulfonamido)-2-methoxy-phenyl]carbamoylamino]-1-naphthyl]oxy]-2-pyridyl]amino]-2-methoxy-N-(3-morpholinopropyl)benzamide]
- % Viability at 1 μg/mL (Jurkat cells): 102.8%
- % Viability at 5 μg/mL (Jurkat cells): 93.8%
- % Viability at 20 μg/mL (Jurkat cells): 79.3%
- IC50 (p38 MAPKα (MAPK14)): 52 nM
- IC50 (c-Src): 20 nM
- inhibition at 5 µg/mL (mitosis in PBMCs): 58.9%
- IC50 (Syk): 98 nM
